Converted amounts (≈) assume the structure as drawn. “And” between values parts separate entries of the source, which are not always exact repeats. Equal entries are not always repeated.
Columns and labels:
[1] = tested on: human lung fibroblast WI-38 cell line; assay: MTT cytotoxicity assay against WI-38 cells; type: cell-based; conditions: MTT, 48 h
Protocol: (§1) Based on the promising dual inhibitory activity of this class of compounds, we next evaluated the cytotoxicity of compounds 5a and 7a against human lung fibroblast cell line WI-38 in order to gain insights into the toxicity of this class of compounds utilizing the MTT assay. In this regard, lung fibroblast cells were cultured and treated with compounds 5a and 7a for 48 h at different concentrations (1000, 250, 63, 16, and 4 µg/mL). After the cells were washed, they were treated with MTT solution and the absorption was assessed using an ELISA reader at 570 nm. As a pharmacological reference drug, Celecoxib, a well-known anti-inflammatory agent, was utilized.
(§2) The cytotoxicity of compounds 5a and 7a was assessed toward the human lung fibroblast WI-38 cell line (Sigma-Aldrich, St. Louis, MO, USA, product number 90020107) using MTT assay. The MTT test assay was performed in accordance with the previously stated procedure. MTT (3-(4,5-dimethylthiazol-2-yl)-2,5-diphenyl tetrazolium bromide; Sigma catalog no. M2128) was dissolved in PBS at 5 mg/mL and processed to eliminate the insoluble residues. Briefly, cells (10^5 cells/well) were treated for 48 h at 37 °C with compounds 5a and 7a at varied doses (1000, 250, 63, 16, and 4 µg/mL, DMSO stock solutions) in a 5% CO2 atmosphere. In our assessment, celecoxib, an inhibitor of cyclooxygenase 2, was employed as a standard reference drug. Following cell washing, MTT solution (180 µL/well) was applied to the cells and incubated at 37 °C for 4 h with shaking, and the absorbance was measured using an ELISA reader at 570 nm.

[2] = MTT cytotoxicity assay against WI-38 cells; type: cell-based, human; conditions: human, WI-38 lung fibroblast cells
Protocol: as §1, §2

[3] = ROS-generation assay (H2O2 generated with DTT, HRP-phenol red, 610 nm); conditions: 50 µM compound, incubated with DTT; control 90.74±5.54
Source text: The […] metabolites and enzymes (such as NADPH oxidase, lipoxygenase, and cytochrome P450) act together to mediate the production of ROS and diminish the counteractive oxidative damage. ROS can cause damage to DNA, lipid, proteins, and nucleic acids and the destruction of cell components leading to cell death. Toward this end, we aimed to investigate whether the mode of action of this class of compounds involved the generation of ROS. ROS-producing compounds upon reaction with a reducing agent in the presence of oxygen afford superoxide O^•−2 radical and hydrogen peroxide (H2O2) which could be quantitively estimated. Thus, compounds 5a and 7a (at 50 µM concentration) were incubated with the reducing agent dithiothreitol (DTT) and the generated H2O2 was subsequently assessed by monitoring the oxidation of phenol red in the presence of horseradish peroxidase (HRP) at the absorbance of 610 nm. We first examined the validity of the assay by examining the activity of a known ROS-producing standard drug. In our study, Celecoxib was utilized as a reference pharmacological ROS-generating drug. […] Next, we evaluated the potency of compounds 5a and 7a to produce ROS at a 50 µM concentration.
According to Nasiri et al., the antioxidant activity of compounds (5a, 7a) and Celecoxib was measured by an evaluation of ROS-generation using ELISA analysis. Three different solutions were prepared for the in vitro assessment of ROS-generation: phenol red, sodium hydroxide solution, and DTT. All reagents were provided by Sigma-Aldrich. A stock solution of DTT (20 mM) was prepared by dissolving […] of DTT in 500 µL of Hank’s Balanced Salt Solution (HBSS), and the obtained solution was preserved at −20 °C. The stock solution was further diluted with HBSS to 0.8 mM for each measurement. The HRP-PR solution was prepared by dissolving 1.8 mg of horseradish peroxidase (HRP) and 3 mg of phenol red (PR) in 10 mL of HBSS. […] After incubation, 1N NaOH was applied, and the absorbance at 610 nm was measured using a plate reader spectrometer. […]

[4] = molecular target: α-amylase; conditions: cited from earlier work
[5] = molecular target: α-glucosidase; conditions: cited from earlier work
[6] = tested on: INS-1 cells; set-up: method as in PMID 10918947; conditions: 10 µg/mL, in the presence of 5.6 mmol/L glucose ref 36; cited from earlier work

Question: With `Cc1ccc(-c2cc(C(F)(F)F)nn2-c2ccc(S(N)(=O)=O)cc2)cc1` [Celecoxib, reference compound] as the molecule, how does the “WI-38 cytotoxicity IC50” value [1] read?
Answer: The value was 93.054 µg/mL.

Question: And the viability at 48 h, 4 µg/mL ([2]; 4 µg/mL (log conc. 0.602))?
Answer: The viability at 48 h, 4 µg/mL was 67.3%.

Question: And the viability at 48 h, 16 µg/mL ([2]; 16 µg/mL (log conc. 1.204))?
Answer: The viability at 48 h, 16 µg/mL was 61.7%.

Question: What about the viability at 48 h, 63 µg/mL ([2]; 63 µg/mL (log conc. 1.799)) of the same molecule?
Answer: Its viability at 48 h, 63 µg/mL is 54.2%.

Question: And the viability at 48 h, 250 µg/mL ([2]; 250 µg/mL (log conc. 2.398))?
Answer: The viability at 48 h, 250 µg/mL was 43%.

Question: And the viability at 48 h, 1000 µg/mL ([2]; 1000 µg/mL (log conc. 3))?
Answer: The viability at 48 h, 1000 µg/mL was 35.4%.

Question: What about the IC50 at 48 h ([2]; MTT) of the same molecule?
Answer: Its IC50 at 48 h is 93 µg/mL (≈ 244 µM).

Question: What about the “ROS produced (generated H2O2)” value [3] of the same molecule?
Answer: Its value is 171.6 pg/mL and 171.6 ± 1.89 pg/mL.

Question: For `O=C1CNC(=S)N1C(=O)c1cc([N+](=O)[O-])cc([N+](=O)[O-])c1` [Compound 3j], which IC50 ([4]; read-out: IC50 toward α-amylase enzyme) is on record?
Answer: The IC50 was 8.2 µM.

Question: And the IC50 ([5]; read-out: IC50 toward α-glucosidase enzyme)?
Answer: Its IC50 is 51 µM.

Question: With `CN1C(=O)/C(=C/c2ccc(-c3cc(=O)c4ccccc4o3)cc2)N(C)C1=S` [Compound 9] as the molecule, how does the “increase of insulin release as compared to control” value [6] read?
Answer: Its value is 40%.

Question: Which “IC50 toward α-amylase activity” value [4] does the source give for `O=C1CNC(=S)N1` [unsubstituted-2-thiohydantoin, 2-thiohydantoin] here?
Answer: Its value is 410.35 µg/mL (≈ 3530 µM).

Question: And the “IC50 toward α-glucosidase activity” value [5]?
Answer: The value was 356.22 µg/mL (≈ 3070 µM).

Source: paper PMC9785777, “Antidiabetic Potential of Novel 1,3,5-Trisubstituted-2-Thioxoimidazloidin-4-One Analogues: Insights into α-Glucosidase, α-Amylase, and Antioxidant Activities” (Pharmaceuticals, 2022)
